The record followed here is ChEMBL document CHEMBL3352388, “Active compounds from a diverse library of triazolothiadiazole and triazolothiadiazine scaffolds: synthesis, crystal structure determination, cytotoxicity, cholinesterase inhibitory activity, and binding mode analysis” (Bioorg Med Chem, 2014).

Data set [1] concerns the target T1, Cholinesterase (Homo sapiens, UniProt P06276). Briefly: Inhibition of human BChE by Ellman's method.
The next data set concerns NCI-H157. Briefly: Cytotoxicity against human NCI-H157 cells by sulforhodamine B assay. In kind it is functional, cell-based.
In another data set the test system is Vero. Briefly: Cytotoxicity against African green monkey Vero cells by sulforhodamine B assay. As to conditions: chlorocebus sabaeus. The arrangement: concentration or dose not given beside the values. In kind it is cell-based.
The next data set deals with Acetylcholinesterase (Electrophorus electricus, UniProt O42275). Briefly: Inhibition of electric eel AChE by Ellman's method.
The target of data set [2] is Acetylcholinesterase (Electrophorus electricus) (UniProt O42275). Briefly: Inhibition of electric eel AChE at 100 uM by Ellman's method.
Data set [3] deals with T1, Cholinesterase. Briefly: Ratio of neostigmine IC50 to compound IC50 for human BChE.

Acetylcholinesterase, sequence (O42275 whole entry): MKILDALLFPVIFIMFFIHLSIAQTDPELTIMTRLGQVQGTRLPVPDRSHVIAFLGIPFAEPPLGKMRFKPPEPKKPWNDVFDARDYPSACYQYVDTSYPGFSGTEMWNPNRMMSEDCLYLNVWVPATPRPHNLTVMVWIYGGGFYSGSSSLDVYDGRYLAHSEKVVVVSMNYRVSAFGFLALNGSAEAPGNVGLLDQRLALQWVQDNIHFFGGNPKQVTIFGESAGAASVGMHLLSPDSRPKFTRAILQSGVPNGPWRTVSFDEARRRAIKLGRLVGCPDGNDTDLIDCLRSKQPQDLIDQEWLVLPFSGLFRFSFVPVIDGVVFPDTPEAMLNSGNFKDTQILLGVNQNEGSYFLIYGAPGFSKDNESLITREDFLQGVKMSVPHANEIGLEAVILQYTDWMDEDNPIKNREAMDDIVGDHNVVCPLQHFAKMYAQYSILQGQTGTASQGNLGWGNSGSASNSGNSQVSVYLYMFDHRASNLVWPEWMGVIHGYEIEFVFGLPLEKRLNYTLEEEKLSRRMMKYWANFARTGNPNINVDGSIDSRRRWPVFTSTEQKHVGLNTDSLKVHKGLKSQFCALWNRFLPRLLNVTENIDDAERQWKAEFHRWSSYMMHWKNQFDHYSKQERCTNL
Acetylcholinesterase (Electrophorus electricus), sequence (O42275 24-633 limits assumed): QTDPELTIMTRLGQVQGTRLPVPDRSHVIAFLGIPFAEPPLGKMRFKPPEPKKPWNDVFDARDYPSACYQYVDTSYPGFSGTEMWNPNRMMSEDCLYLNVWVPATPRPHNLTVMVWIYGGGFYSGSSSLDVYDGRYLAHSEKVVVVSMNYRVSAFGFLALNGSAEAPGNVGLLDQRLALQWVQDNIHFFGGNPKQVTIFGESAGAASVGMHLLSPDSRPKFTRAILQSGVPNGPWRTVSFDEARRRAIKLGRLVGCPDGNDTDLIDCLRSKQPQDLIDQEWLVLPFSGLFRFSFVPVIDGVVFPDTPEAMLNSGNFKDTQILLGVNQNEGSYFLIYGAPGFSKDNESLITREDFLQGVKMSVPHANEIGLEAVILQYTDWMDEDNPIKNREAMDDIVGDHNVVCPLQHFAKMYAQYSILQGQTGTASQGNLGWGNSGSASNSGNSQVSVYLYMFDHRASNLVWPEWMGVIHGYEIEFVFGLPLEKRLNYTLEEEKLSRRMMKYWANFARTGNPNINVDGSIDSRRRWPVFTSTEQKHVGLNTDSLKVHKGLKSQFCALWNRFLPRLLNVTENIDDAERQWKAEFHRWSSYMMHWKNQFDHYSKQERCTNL
T1 sequence (P06276 whole entry): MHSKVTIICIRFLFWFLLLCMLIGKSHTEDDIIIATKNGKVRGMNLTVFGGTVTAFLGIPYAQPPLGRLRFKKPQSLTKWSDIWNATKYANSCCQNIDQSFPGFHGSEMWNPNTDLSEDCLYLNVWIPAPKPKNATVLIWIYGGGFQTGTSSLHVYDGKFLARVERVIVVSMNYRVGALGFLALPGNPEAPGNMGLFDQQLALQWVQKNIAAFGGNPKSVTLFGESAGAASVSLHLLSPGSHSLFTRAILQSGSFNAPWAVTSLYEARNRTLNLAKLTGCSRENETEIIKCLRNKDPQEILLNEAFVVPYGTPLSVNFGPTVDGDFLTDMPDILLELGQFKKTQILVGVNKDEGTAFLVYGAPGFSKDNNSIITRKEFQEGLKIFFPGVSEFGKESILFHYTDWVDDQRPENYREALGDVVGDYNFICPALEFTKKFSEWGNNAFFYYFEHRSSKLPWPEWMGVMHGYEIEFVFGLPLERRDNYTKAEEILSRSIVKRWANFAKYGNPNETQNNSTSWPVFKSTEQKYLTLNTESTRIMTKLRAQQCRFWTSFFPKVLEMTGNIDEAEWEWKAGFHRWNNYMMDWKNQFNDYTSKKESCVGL

Consider `CN(C)C(=O)Oc1cccc([N+](C)(C)C)c1` [NEOSTIGMINE], for which half-maximal inhibition against Cholinesterase [1] (IC50) was put at 16.3 µM.

For the molecule `c1cncc(-c2nnc3sc(-c4ccc[nH]4)nn23)c1`, the IC50 came to 5.14 µM in the data set with NCI-H157, 13.7 µM at Cholinesterase [1] and 13.7 µM at Acetylcholinesterase. In the data set on Vero, this molecule showed an Activity of 19.2%.

On to `Cc1ccccc1OCc1nn2c(-c3cccnc3)nnc2s1`, for which the IC50 with NCI-H157 was 3.29 µM. This molecule showed an Activity with Vero of 20.9%.

For `Clc1ccc(C2=Nn3c(nnc3-c3cccnc3)SC2)cc1`, the IC50 stood at 3.94 µM in the data set with NCI-H157, 9.82 µM against Cholinesterase [1] and 15.1 µM at Acetylcholinesterase. Moreover, the Activity with Vero was 21.1%.

Consider `c1cncc(-c2nnc3n2N=C(c2cccc4ccccc24)CS3)c1`, for which, in data set [2], the inhibition came out at 17.2%. Moreover, the IC50 with NCI-H157 worked out at 5.37 µM; against Cholinesterase [1] it was 15.9 µM. Further, the Activity in the data set with Vero turned out to be 23.1%.

With `O=[N+]([O-])c1ccc(C2=Nn3c(nnc3-c3cccnc3)SC2)cc1`, the IC50 in the data set with NCI-H157 was 1.42 µM; against Cholinesterase [1] it was 1.09 µM; on Acetylcholinesterase it was 18.3 µM. Also, the Ratio IC50 at Cholinesterase [3] was 15. In the data set with Vero, this molecule registered an Activity of 10.7%.

Take `Fc1ccc(Cc2nn3c(-c4cccnc4)nnc3s2)cc1`: in data set [2], the inhibition is 32.3%. Also, the IC50 was found to be 1.65 µM in the data set on NCI-H157 and 79.9 µM on Cholinesterase [1]. In the data set on Vero, the Activity is listed as 21.3%.

With `c1cncc(-c2nnc3sc(-c4ccoc4)nn23)c1`, the IC50 with NCI-H157 came to 3.41 µM. Moreover, the Activity in the data set on Vero is 28.4%.

With `Oc1ccc(OCc2nn3c(-c4cccnc4)nnc3s2)cc1`, the IC50 was 3.01 µM in the data set with NCI-H157, 0.585 µM at Cholinesterase [1] and 3.09 µM against Acetylcholinesterase. Besides, the Activity with Vero is reported as 20.4%.

Consider `CCOc1ccc(Cc2nn3c(-c4cccnc4)nnc3s2)cc1`, for which the inhibition in data set [2] came out at 38.4%. For the same molecule, the IC50 with NCI-H157 turned out to be 2.92 µM; against Cholinesterase [1], 70.7 µM. In the data set on Vero, the Activity stood at 22.5%.

Take `COc1ccc(C2=Nn3c(nnc3-c3cccnc3)SC2)cc1`: the inhibition in data set [2] is 15.2%. For the same molecule, the values for the IC50 in the data set on NCI-H157 and against Cholinesterase [1] were 1.67 µM and 0.781 µM, respectively. Further, the Ratio IC50 at Cholinesterase [3] was 23. In addition, in the data set on Vero, the Activity is 27.8%.

Regarding `Cc1ccc(OCc2nn3c(-c4cccnc4)nnc3s2)cc1`, the IC50 came out at 2.98 µM with NCI-H157, 4.76 µM against Cholinesterase [1] and 11.3 µM against Acetylcholinesterase. Besides, the Activity in the data set with Vero stood at 23.8%.

In data set [2], `Fc1cc(Cl)ccc1-c1nn2c(-c3cccnc3)nnc2s1` showed an inhibition of 36.2%. In addition, the IC50 in the data set with NCI-H157 amounted to 1.87 µM; on Cholinesterase [1], 37.4 µM. The same molecule had an Activity in the data set on Vero of 26.7%.

In turn, `Fc1ccc(OCc2nn3c(-c4cccnc4)nnc3s2)cc1` had an IC50 in the data set on NCI-H157 of 1.94 µM. Further, the Activity with Vero is 17.4%.

Turning to `Cc1occc1-c1nn2c(-c3cccnc3)nnc2s1`, the results for the IC50 with NCI-H157, on Cholinesterase [1] and on Acetylcholinesterase were 2.93 µM, 58.6 µM and 37.7 µM, respectively. Besides, the Activity in the data set with Vero turned out to be 24.3%.

As for `Fc1ccc(C2=Nn3c(nnc3-c3cccnc3)SC2)cc1`, the inhibition in data set [2] stood at 40.8%. Besides, the IC50 in the data set on NCI-H157 worked out at 1.85 µM; at Cholinesterase [1] it was 4.92 µM. In the data set on Vero, this molecule displayed an Activity of 18.4%.

Take `Fc1ccc(-c2nn3c(-c4cccnc4)nnc3s2)cc1Cl`: the inhibition in data set [2] is 48.4%. For the same molecule, the IC50 turned out to be 1.08 µM in the data set with NCI-H157 and 10.3 µM against Cholinesterase [1]. This molecule came in with an Activity in the data set with Vero of 23.6%.

As for `COc1ccc(OCc2nn3c(-c4cccnc4)nnc3s2)cc1`, in data set [2], the inhibition turned out to be 39.5%. Also, the results for the IC50 with NCI-H157 and on Cholinesterase [1] were 1.95 µM and 55.8 µM, respectively. The same molecule yielded an Activity in the data set on Vero of 24.1%.

Regarding `Oc1ccccc1OCc1nn2c(-c3cccnc3)nnc2s1`, the values for the IC50 in the data set with NCI-H157, against Cholinesterase [1] and on Acetylcholinesterase were 3.67 µM, 3.02 µM and 35.5 µM, respectively. Moreover, the Activity in the data set with Vero amounted to 22.7%.

In the case of `Cc1ccc(C2=Nn3c(nnc3-c3cccnc3)SC2)cc1`, in data set [2], the inhibition is 28.7%. For the same molecule, the results for the IC50 in the data set with NCI-H157 and against Cholinesterase [1] were 3.87 µM and 25.4 µM, respectively. The same molecule displayed an Activity in the data set with Vero of 27.3%.

Take `c1ccc(-c2ccc(C3=Nn4c(nnc4-c4cccnc4)SC3)cc2)cc1`: the IC50 with NCI-H157 was determined as 4.32 µM; against Cholinesterase [1], 18.9 µM; against Acetylcholinesterase, 39.7 µM. The Activity with Vero is listed as 26.1%.

For the molecule `Clc1ccc(C2=Nn3c(nnc3-c3cccnc3)SC2)cc1Cl`, the IC50 in the data set with NCI-H157 was 0.96 µM; against Cholinesterase [1], 64.8 µM; against Acetylcholinesterase, 38.5 µM. The molecule also returned an Activity in the data set on Vero of 22.2%.

In the case of `CC[C@]1(O)C[C@H]2CN(CCc3c([nH]c4ccccc34)[C@@](C(=O)OC)(c3cc4c(cc3OC)N(C=O)[C@H]3[C@@](O)(C(=O)OC)[C@H](OC(C)=O)[C@]5(CC)C=CCN6CC[C@]43[C@@H]65)C2)C1` [VINCRISTINE], the IC50 in the data set on NCI-H157 amounted to 1.03 µM. This molecule also came in with an Activity in the data set with Vero of 16.81%.

On to `c1cncc(-c2nnc3sc(-c4ccco4)nn23)c1`, for which the IC50 in the data set with NCI-H157 is 3.16 µM; against Cholinesterase [1], 6.03 µM; at Acetylcholinesterase, 21.2 µM. Besides, in the data set with Vero, the Activity was 23.9%.
